Measurements: patent US20140088187A1, “ANDROGEN RECEPTOR INHIBITORS AND METHODS OF USE THEREOF” (BETH ISRAEL DEACONESS MEDICAL CENTER, priority 2010, published 2014)

Assays:
[1] = target: T1, AR (Mus musculus, UniProt P19091); assay: Dose ranging experiment in intact adult male mice (seminal vesicles, prostate epithelium); assay type: in vivo
T1 construct: we first treated adult male mice with compound A89 in a dose ranging experiment; from tissue; host or cells: seminal vesicles and prostate epithelium of intact adult male mice
T1 sequence (P19091 1-899): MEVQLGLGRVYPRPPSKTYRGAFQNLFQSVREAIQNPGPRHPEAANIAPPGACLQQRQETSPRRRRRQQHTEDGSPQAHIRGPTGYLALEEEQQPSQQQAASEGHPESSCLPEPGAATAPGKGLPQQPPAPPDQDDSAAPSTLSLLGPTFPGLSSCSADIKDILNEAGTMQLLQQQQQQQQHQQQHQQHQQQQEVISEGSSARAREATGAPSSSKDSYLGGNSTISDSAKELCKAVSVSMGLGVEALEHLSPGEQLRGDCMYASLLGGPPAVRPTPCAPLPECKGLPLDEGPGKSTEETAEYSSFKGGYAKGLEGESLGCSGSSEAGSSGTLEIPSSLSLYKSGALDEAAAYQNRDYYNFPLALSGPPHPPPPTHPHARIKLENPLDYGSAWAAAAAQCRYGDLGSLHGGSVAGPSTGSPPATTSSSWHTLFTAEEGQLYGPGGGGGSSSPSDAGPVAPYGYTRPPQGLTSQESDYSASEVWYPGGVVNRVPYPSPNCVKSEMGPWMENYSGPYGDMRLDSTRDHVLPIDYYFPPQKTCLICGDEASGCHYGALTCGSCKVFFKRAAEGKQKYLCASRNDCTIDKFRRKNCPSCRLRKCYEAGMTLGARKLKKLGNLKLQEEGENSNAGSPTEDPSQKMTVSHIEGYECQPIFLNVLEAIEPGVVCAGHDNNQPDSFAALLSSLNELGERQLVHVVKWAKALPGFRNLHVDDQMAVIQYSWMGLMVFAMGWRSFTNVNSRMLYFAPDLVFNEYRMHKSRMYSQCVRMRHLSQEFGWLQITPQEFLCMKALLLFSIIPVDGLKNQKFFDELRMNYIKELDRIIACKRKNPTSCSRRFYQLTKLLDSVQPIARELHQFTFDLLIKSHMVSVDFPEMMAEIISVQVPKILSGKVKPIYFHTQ
Method: (§1) FIG. 17. Compound A89 maintains activity in vivo and is efficacious in a CRPC xenograft model. (a) Morphological changes in seminal vesicles of intact adult male mice following treatment with DMSO vehicle, Bic (0.5 mg/day) or A89 (mg/day as indicated) for 7 days. (b) H&E stained cross-sections of prostate ductal epithelium from above mice treated with DMSO, Bic, or A89 (10 mg/day). (c) AR and Ki-67 staining in pre- and post-castration relapsed VCaP xenograft tumor sections following treatment with A89 (5 mg/day) or Bic (0.5 mg/day) for 7 days. (d) mRNA levels of AR and AR-target genes in post-castration relapsed VCaP xenograft tumors following treatment with A89 (5 mg/day) for 7 days. Error bars represent S.E.M.
(§2) To evaluate the activity of the chemotype A compounds in vivo we first treated adult male mice with compound A89 in a dose ranging experiment from 0.5 mg/day to 10 mg/day via intraperitoneal injection for 7 days. […] We next evaluated A89 in VCaP xenograft tumors that had relapsed following an initial response to castration, which is a model of CRPC.

[2] = target: T2, AR in VCaP cells (Homo sapiens, UniProt P10275); assay: Nuclear AR, total AR protein and PSA expression in VCaP cells in steroid depleted medium; assay type: cell-based
T2 construct: endogenous in cells; host or cells: VCaP
T2 sequence (P10275 1-920): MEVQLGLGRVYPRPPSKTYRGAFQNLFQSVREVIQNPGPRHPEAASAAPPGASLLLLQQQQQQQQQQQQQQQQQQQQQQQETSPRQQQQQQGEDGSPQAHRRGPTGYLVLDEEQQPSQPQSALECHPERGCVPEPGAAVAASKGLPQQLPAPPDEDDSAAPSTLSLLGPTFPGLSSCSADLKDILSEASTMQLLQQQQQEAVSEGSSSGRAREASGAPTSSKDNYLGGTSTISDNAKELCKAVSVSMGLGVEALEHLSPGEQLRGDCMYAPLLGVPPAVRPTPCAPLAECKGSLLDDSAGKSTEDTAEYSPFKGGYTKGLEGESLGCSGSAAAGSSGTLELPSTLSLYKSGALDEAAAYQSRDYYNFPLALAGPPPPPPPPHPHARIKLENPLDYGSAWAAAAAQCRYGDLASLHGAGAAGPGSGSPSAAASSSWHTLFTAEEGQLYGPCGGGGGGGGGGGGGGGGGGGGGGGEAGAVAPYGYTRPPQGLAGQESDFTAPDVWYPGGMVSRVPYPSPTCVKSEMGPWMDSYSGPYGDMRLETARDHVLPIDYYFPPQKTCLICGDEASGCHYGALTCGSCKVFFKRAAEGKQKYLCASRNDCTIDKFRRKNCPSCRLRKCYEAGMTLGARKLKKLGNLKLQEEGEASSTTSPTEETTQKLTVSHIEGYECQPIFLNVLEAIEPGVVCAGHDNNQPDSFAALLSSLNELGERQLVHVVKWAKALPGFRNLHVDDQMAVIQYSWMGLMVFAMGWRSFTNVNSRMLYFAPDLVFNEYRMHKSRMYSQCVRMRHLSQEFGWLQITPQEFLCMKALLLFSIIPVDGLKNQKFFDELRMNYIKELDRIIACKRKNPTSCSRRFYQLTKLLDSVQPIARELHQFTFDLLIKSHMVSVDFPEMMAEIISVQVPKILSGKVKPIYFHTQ
Text: VCaP cells, derived from a CRPC vertebral metastasis, express substantial levels of AR and AR regulated genes such as PSA even when cultured in steroid depleted medium. […] In additional studies focused on chemotype A compounds, we used immunofluorescence to assess AR nuclear localization. […] In contrast, and consistent with the biochemical fractionation studies noted above, basal nuclear AR was decreased by A61.
We used the NE-PER Nuclear and Cytoplasmic Extraction Reagents (Pierce 78833).

[3] = target: T3, AR WT (Homo sapiens, UniProt P10275); assay: Mifepristone-stimulated VP16-NCoRc recruitment reporter assay in COS7 cells, AR WT; assay type: cell-based
T3 construct: The AR WT construct expresses full-length human AR under cmv promoter control; expressed in transfected cells; host or cells: COS7
T3 sequence (P10275 1-920): T2 sequence (P10275 1-920)
Text: The ERα antagonist fulvestrant (Faslodex) represents a novel class of estrogen receptor downregulators that appear to mediate ERα degradation by specifically repositioning helix 12. To assess the role of helix 12 in chemotype A-mediated AR degradation, we first determined if helix 12 is required for A89 binding. As this helix is required for AR agonist activity, we could not directly measure competitive antagonist activity on a truncated AR lacking helix 12.

[4] = test system: VCaP xenograft tumors; assay: Post-castration relapsed VCaP xenograft tumors (model of CRPC); assay type: in vivo
Method: as §1, §2

Structure (SMILES): CCOc1cc(F)c(S(=O)(=O)NCc2ccc3c(c2)OCO3)cc1F [Compound A89, N-(1,3-benzodioxol-5-ylmethyl)-4-ethoxy-2,5-difluorobenzenesulfonamide]
- general health of mice ([1]; 0.5 mg/day to 10 mg/day intraperitoneal injection for 7 days): outwardly healthy
- androgen sensitive prostate epithelium ([1]; adult male mice, 7 days (10 mg/day in FIG. 17b)): atrophy
- seminal vesicles dose-dependent involution, beginning at dose ([1]; adult male mice, intraperitoneal injection for 7 days): ≥ 2.5 mg/day
- basal level PSA expression ([2]; 10 μM, steroid depleted medium): further decreasing basal level PSA expression
- nuclear AR ([2]; 10 μM, steroid depleted medium): significantly decreased nuclear AR
- DHT stimulated PSA expression ([2]; not shown): blocking DHT stimulated PSA expression
- mifepristone-mediated VP16-NCoRc recruitment ([3]; A89 50 μM with Mif 100 nM): suppressed
- VP16-NCoRc recruitment (interaction with AR) ([3]; Mif 100 nM, A89 50 μM, 24 hours): did not stimulate
- tumor cell proliferation (Ki-67 staining) ([4]; A89 5 mg/day for 7 days): decreased tumor cell proliferation
- nuclear AR expression / staining in tumor ([4]; A89 5 mg/day or Bic 0.5 mg/day for 7 days): substantially decreased
- expression of androgen regulated genes (TMPRSS2, ERG, PSA mRNA) ([4]; biopsies pre- and post treatment, A89 5 mg/day for 7 days): significant decrease
